Measurements from PubChem BioAssay AID2060912 (Molecular Pharmacology Branch, DTP, NCI, 2025).

Test system: HUVEC/MSC spheroids viability
Assay: Human HUVEC/MSC cell line growth inhibition [KRAS2];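 as to viability, T/C: percent of DMSO vehicle control luminescence so 100% = untreated viability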
Conditions: for viability, T/C: stronger effect = lower value
Excerpt: Multicellular complex tumor spheroid response to RAS pathway inhibitors in combination with a targeted agents in patient-derived cell lines with oncogenic KRAS variants from multiple cancer types
A high-throughput screen of multi-cell type tumor spheroids was designed to identify active combinations of targeted small molecules and KRAS pathway inhibitors. Complex spheroids include a stromal component modeled by human endothelial cells (HUVEC) and fibroblasts modeled by human mesenchymal stem cells (MSCs). The concentration ranges selected for each drug and investigational agent were based upon clinically achievable concentrations if the clinical Cmax of the agent was known. * [This particular assayID is a followup dataset requested by reviewers of the manuscript. It is a test of the HUVEC and MSC without the tumor cells, and was conducted using different drug plates and a different plate layout.]
Compounds. The drugs and investigational agents: BI-3406 (NSC825286), BAY-293 (NSC824723), batoprotafib (TNO155; NSC825523), sotorasib (AMG 510; NSC818433), MRTX1257 (NSC819558), elimusertib (BAY 1895344; NSC800525), molibresib (GSK525762; NSC774829), temuterkib (LY3214996; NSC803410), venetoclax (NSC766270), alisertib (NSC759677), olaparib (NSC753686), talazoparib (NSC767125), erdafitinib (NSC781556), ipatasertib (NSC767898), cabozantinib (NSC761068), nintedanib (NSC756659), abemaciclib (NSC768073), docetaxel (NSC628503), trametinib (NSC758246), and sapanisertib (NSC764658) were obtained from the National Cancer Institute (NCI) Developmental Therapeutics Program Chemical Repository. The FDA-approved anticancer drug set is available from the Developmental Therapeutics Program. […] The stock solutions were prepared in dimethyl sulfoxide (DMSO, Sigma-Aldrich, St. Louis, MO, cat. D2650) at 800-fold the tested concentration and stored at -70 degrees C prior to their use. All drugs and investigational agents were tested over a range starting from a high concentration at or near the clinical Cmax and decreasing in half-log increments. If the clinical Cmax for an agent had not been determined, the highest concentration tested was 10 microM.
Cell Culture. All cells were maintained in an incubator at 37 degrees C and 5% CO2 with 95% humidity. The PDC lines were cultured according to standard operating procedures established by the NCI PDMR (https://pdmr.cancer.gov/sops/default.htm). Briefly, all PDCs were thawed and cultured in Matrigel-coated flasks prepared with a working solution of 1X Ham's F-12 nutrient mix, without supplementation (Invitrogen, Waltham, MA, cat. 11765054), 100 U/mL penicillin-streptomycin (Invitrogen, cat. 15140122), and 2.5% Matrigel (Corning Inc., Corning, NY, cat. 354248) for the first three passages. All PDCs were cultured in complete DMEM/F-12 media containing advanced DMEM/F-12 (Invitrogen, cat. 12634028), 4.9% defined fetal bovine serum, heat inactivated (HyClone Laboratories Inc., Logan, UT, cat. SH30070.03HI), 389 ng/mL hydrocortisone (Sigma-Aldrich, cat. H4001), 9.7 ng/mL human EGF recombinant protein (Invitrogen, cat. PHG0313), 23.4 microg/mL adenine (Sigma-Aldrich, cat. A2786), 97.3 U/mL penicillin-streptomycin (Invitrogen, cat. 15140122), 1.9 mM L-glutamine (Invitrogen, cat. 25030081), and 9.7 microM Y-27632 dihydrochloride (Tocris Bioscience, Bristol, United Kingdom, cat. 1254). The PDCs were cultured in complete DMEM/F12 media without 9.7 microM Y-27632 dihydrochloride for at least two passages prior to the screen. The established cell line HOP-62 was cultured in RPMI 1640 medium, HEPES (Invitrogen, cat. 22400105) with 10% defined fetal bovine serum (HyClone Laboratories Inc., cat. SH30070.03) and 2 mM L-glutamine (Invitrogen, cat. 25030081). The pooled donor HUVEC were cultured in endothelial cell growth medium 2 (PromoCell, Heidelberg, Germany, cat. C-22011) and the hMSC were cultured in mesenchymal stem cell growth medium 2 (PromoCell, cat. C-28009). […]

CC(C)NCC(C(=O)N1CCN(c2ncnc3c2C(C)CC3O)CC1)c1ccc(Cl)cc1 (stereo unspecified) + CC1OCC2(CCN(c3cnc(Sc4ccnc(N)c4Cl)c(N)n3)CC2)C1N showed an IC50 (curve of first compound, second compound 0.0316 µM) of 7.88 µM, an IC50 (curve of first compound, second compound 0.1 µM) of 6.15 µM and an IC50 (curve of first compound, second compound 0.316 µM) of 2.55 µM. It also gave an IC50 (curve of first compound, second compound 1 µM) of 1.31 µM, an IC50 (curve of first compound, second compound 3.16 µM) of 0.564 µM and an IC50 (curve of first compound, second compound 10 µM) of 0.228 µM. For the same compound, the viability, T/C (second compound 0.0316 µM, first compound 0.0316 µM) was 115%, the viability, T/C (second compound 0.0316 µM, first compound 0.1 µM) was 109% and the viability, T/C (second compound 0.0316 µM, first compound 0.316 µM) was 93.5%. For the same compound, the viability, T/C (second compound 0.0316 µM, first compound 1 µM) was 66.2%, the viability, T/C (second compound 0.0316 µM, first compound 3.16 µM) was 56.2% and the viability, T/C (second compound 0.0316 µM, first compound 10 µM) was 47.6%. The viability, T/C (second compound 0.1 µM, first compound 0.0316 µM) was 123%, the viability, T/C (second compound 0.1 µM, first compound 0.1 µM) was 107% and the viability, T/C (second compound 0.1 µM, first compound 0.316 µM) was 90.9%. It also gave a viability, T/C (second compound 0.1 µM, first compound 1 µM) of 59.6%, a viability, T/C (second compound 0.1 µM, first compound 3.16 µM) of 57.3% and a viability, T/C (second compound 0.1 µM, first compound 10 µM) of 46.1%. It also gave a viability, T/C (second compound 0.316 µM, first compound 0.0316 µM) of 94.1%, a viability, T/C (second compound 0.316 µM, first compound 0.1 µM) of 107% and a viability, T/C (second compound 0.316 µM, first compound 0.316 µM) of 98.1%. The viability, T/C (second compound 0.316 µM, first compound 1 µM) was 68.1%, the viability, T/C (second compound 0.316 µM, first compound 3.16 µM) was 49.5% and the viability, T/C (second compound 0.316 µM, first compound 10 µM) was 38%. For the same compound, the viability, T/C (second compound 1 µM, first compound 0.0316 µM) was 89.6%, the viability, T/C (second compound 1 µM, first compound 0.1 µM) was 91% and the viability, T/C (second compound 1 µM, first compound 0.316 µM) was 69.8%. It also gave a viability, T/C (second compound 1 µM, first compound 1 µM) of 56.4%, a viability, T/C (second compound 1 µM, first compound 3.16 µM) of 36.4% and a viability, T/C (second compound 1 µM, first compound 10 µM) of 31.6%. It also gave a viability, T/C (second compound 3.16 µM, first compound 0.0316 µM) of 80.3%, a viability, T/C (second compound 3.16 µM, first compound 0.1 µM) of 74.4% and a viability, T/C (second compound 3.16 µM, first compound 0.316 µM) of 58.3%. It also gave a viability, T/C (second compound 3.16 µM, first compound 1 µM) of 43.1%, a viability, T/C (second compound 3.16 µM, first compound 3.16 µM) of 22.1% and a viability, T/C (second compound 3.16 µM, first compound 10 µM) of 21%. For the same compound, the viability, T/C (second compound 10 µM, first compound 0.0316 µM) was 65.1%, the viability, T/C (second compound 10 µM, first compound 0.1 µM) was 62.4% and the viability, T/C (second compound 10 µM, first compound 0.316 µM) was 43.4%. For the same compound, the viability, T/C (second compound 10 µM, first compound 1 µM) was 30.8%, the viability, T/C (second compound 10 µM, first compound 3.16 µM) was 14.3% and the viability, T/C (second compound 10 µM, first compound 10 µM) was 5.59%.
In the case of COc1cc2nc(C)nc(NC(C)c3cc(N)cc(C(F)(F)F)c3)c2cc1OC1CCOC1 (stereo unspecified), the viability, T/C (compound 0.0316 µM) is reported as 99.5% [middle of 9 runs], the viability, T/C (compound 0.316 µM) is reported as 97.3% [middle of 9 runs] and the viability, T/C (compound 10 µM) is reported as 66.7% [middle of 9 runs]. It also gave an IC50 (compound alone, run of 05/05/2024) greater than 10 µM.
